Legend:
Assay type in all cases: in vivo, human
[1] = test system: subjects with gambling disorder; assay: Problem Gambling Severity Index (PGSI), Example 7; conditions: for PGSI score at 2-week follow up / PGSI classification at two-week follow up: after 100 mg racemic ketamine sublingual; for PGSI score, pre-administration / PGSI classification, pre-administration: baseline before 100 mg racemic ketamine sublingual; for % change in PGSI score: pre-administration to 2-week follow up, 100 mg racemic ketamine sublingual
Protocol: A study was completed on the use of ketamine to treat gambling disorder. Subjects were assessed for gambling disorder using the PGSI. Subjects were included if they received a PGSI score greater than 3. Five subjects in total were included (G1-G5). All five subjects were administered ketamine. Blood samples were collected from all five subjects. Blood samples were analysed to determine ketamine and ketamine metabolite levels, and each subject was assessed post-administration to determine the effectiveness of the treatment.
The study spanned a total of 30 days (not counting initial contact and prescreening). Prescreening of all subjects was conducted by phone, and subjects recorded self-report measures, including the Sensitivity to Punishment and Sensitivity to Reward Questionnaire (SPSRQ) and the Gambling Related Cognitions Questionnaire. Prior to beginning treatment, each subject completed the Beck Depression Inventory (BDI) to determine a baseline depression score. Total scores of 0-13 are minimal, 14-19 are mild, 20-28 are moderate, and 29-63 are severe (Beck, Steer, and Brown, 1996).
On Day 3, each subject returned on-site and was administered ketamine. 100 mg of racemic ketamine was administered in as sublingual lozenges.
The remaining follow-up sessions were completed online. Follow-up 1 was completed on Day 4, Follow-up 2 on Day 14, and Follow-up 3 on Day 30. At each follow-up session, the same self-report measures and behavioural tasks were completed.
The PGSI classifies potential problem gamblers in four categories based on scores. A score of 0 is a non-problem gambler, a score of between 1 and 2 is a low-risk gamber (mild), a score of 3-7 is a moderate-risk gambler (moderate), and a score of 8 or above is a problem gambler (severe). Subject G4 was classified as a moderate-risk (moderate) gambler pre-administration, and at the two-week follow up was classified as a low-risk (mild) gambler. Subject G5 was classified as a problem (severe) gambler pre-administration, and at the two-week follow up was classified as a low-risk (mild) gambler

[2] = test system: subjects with gaming disorder; assay: Adverse events, KSET, Example 9; conditions: three gaming disorder subjects; 100 mg racemic ketamine sublingual
subjects with CSBD = assay: Sensitivity to reward (SPSRQ), Example 10; conditions: for Sensitivity to Reward at 2-week follow up: after 100 mg racemic ketamine sublingual; for Sensitivity to Reward, pre-administration: baseline before 100 mg racemic ketamine sublingual; for % change in Sensitivity to Reward: pre-administration to 2-week follow up, 100 mg racemic ketamine sublingual
Protocol: Reward sensitivity was assessed using the SPSRQ. Behavioural tasks, EEG measurements, and subjective experience assessments were also completed.
A study was completed on the use of ketamine to treat CSBD. Subjects were assessed for CSBD using the Problematic Pornography Use Scale (PPUS) and were included if they received an PPUS score greater than 3. Three subjects in total were included (CSB1-CSB3). All three were administered sublingual lozenges comprising 100 mg of racemic ketamine.
The treatment protocol commenced in the same way as disclosed in the ketamine in subjects with gambling disorder study completed in EXAMPLE 7, with the exceptions outlined as follows: No behavioural tasks were completed. Self-report measures completed during EXAMPLE 10 included the Emotional Intimacy Measure, the Childhood Trauma Questionnaire, the Generalised Anxiety Disorder-7 (GAD-7), the Morningness-Eveningness Questionnaire (MEQ), and the Problematic Pornography Questionnaire (PPQ), the Acceptance and Action Questionnaire, and the Psychological and Interpersonal Relationship Scales (PAIRS).

[3] = test system: subjects with binge eating disorder; assay: Binge Eating Scale (BES), Example 8; conditions: for Binge Eating Scale score at 2-week follow up / BES classification at two-week follow up: after 100 mg racemic ketamine sublingual; for BES classification, pre-administration / Binge Eating Scale score, pre-administration: baseline before 100 mg racemic ketamine sublingual; for % change in Binge Eating Scale: pre-administration to 2-week follow up, 100 mg racemic ketamine sublingual
From the text: Binge eating disorder may be characterised as being mild, moderate, and severe. The severity of binge eating disorder may be determined by the Binge Eating Scale (BES), wherein a score below 17 indicates no binge eating disorder, a score of between 18-20 indicates mild binge eating disorder, a score of between 21-27 indicates moderate binge eating disorder, and a score above 27 indicates severe binge eating disorder (Grupski et al., 2013), or based on ordinary skill. In embodiments, a patient may have binge eating disorder characterised as being mild. In other embodiments, a patient may have binge eating disorder characterised as being moderate. In other embodiments, a patient may have binge eating disorder characterised as being severe.
A study was completed on the use of ketamine to treat binge eating disorder. Subjects were assessed for binge eating disorder using the Binge Eating Scale (BES), and included if they received a BES score greater than 15. Three subjects in total were included (BE1-BE3, and interchangeably on FIGS. 5 and 6 as BED1-BED3, these being the same subjects). All three were administered sublingual lozenges comprising 100 mg of racemic ketamine.
The treatment protocol commenced in substantially the same way as disclosed in the ketamine in subjects with gambling disorder study completed in EXAMPLE 7, with the exceptions outlined as follows: No behavioural tasks were completed. Blood samples collected every 10 minutes from the time of administration to 90 minutes post-administration were additionally analysed for leptin and ghrelin. Self-report measures included the Binge Eating Scale, the Adult Attachment Interview (AAI), a 20 question interview about the subject's recollections of their childhood (Sykes and Turner, 2015); the Childhood Trauma Questionnaire; the Morningness-Eveningness Questionnaire (MEQ), a 19-item questionnaire designed to assess when a respondent prefers to wake up or start sleep (American Thoracic Society, 2022); the DSM-5 Binge Eating Disorder diagnostic criteria; and the SPSRQ.

For `CNC1(c2ccccc2Cl)CCCCC1=O` (racemic) [ketamine, 2-(2-chlorophenyl)-2-(methylamino)-cyclohexanone], the “PGSI score at 2-week follow up” value ([1]; subject G1) was 5, the “PGSI score, pre-administration” value ([1]; subject G1) was 4 and the “% change in PGSI score” value ([1]; subject G1) was “+25%”. For the same molecule, the “PGSI score at 2-week follow up” value ([1]; subject G2) was 11, the “PGSI score, pre-administration” value ([1]; subject G2) was 16 and the “% change in PGSI score” value ([1]; subject G2) was −31.25%. For the same molecule, the “PGSI score at 2-week follow up” value ([1]; subject G3) was 18, the “PGSI score, pre-administration” value ([1]; subject G3) was 21 and the “% change in PGSI score” value ([1]; subject G3) was −14.29%. For the same molecule, the “PGSI classification at two-week follow up” value ([1]; subject G4) was “low-risk (mild) gambler (a score of between 1 and 2 is a low-risk gamber (mild))”, the “PGSI score at 2-week follow up” value ([1]; subject G4) was 1 and the “PGSI classification, pre-administration” value ([1]; subject G4) was “moderate-risk (moderate) gambler (a score of 3-7 is a moderate-risk gambler (moderate))”. The “PGSI score, pre-administration” value ([1]; subject G4) was 3, the “% change in PGSI score” value ([1]; subject G4) was −66.67% and the “PGSI classification at two-week follow up” value ([1]; subject G5) was “low-risk (mild) gambler (a score of between 1 and 2 is a low-risk gamber (mild))”. The “PGSI score at 2-week follow up” value ([1]; subject G5) was 2, the “PGSI classification, pre-administration” value ([1]; subject G5) was “problem (severe) gambler (a score of 8 or above is a problem gambler (severe))” and the “PGSI score, pre-administration” value ([1]; subject G5) was 11. For the same molecule, the “% change in PGSI score” value ([1]; subject G5) was −81.82%, the “course of adverse events” value [2] was “All adverse events were transient, and resolved two hours post-lozenge” and the overall tolerability [2] was “well-tolerated, with no drop-outs”. For the same molecule, the “unexpected adverse reactions (KSET)” value [2] was “No unexpected adverse reactions were observed”, the “Sensitivity to Reward at 2-week follow up” value (subjects with CSBD; subject CSB1) was 9 and the “Sensitivity to Reward, pre-administration” value (subjects with CSBD; subject CSB1) was 10. For the same molecule, the “% change in Sensitivity to Reward” value (subjects with CSBD; subject CSB1) was −10%, the “Sensitivity to Reward at 2-week follow up” value (subjects with CSBD; subject CSB2) was 15 and the “Sensitivity to Reward, pre-administration” value (subjects with CSBD; subject CSB2) was 15. The “Sensitivity to Reward at 2-week follow up” value (subjects with CSBD; subject CSB3) was 9, the “Sensitivity to Reward, pre-administration” value (subjects with CSBD; subject CSB3) was 17 and the “% change in Sensitivity to Reward” value (subjects with CSBD; subject CSB3) was −47.06%. The “Binge Eating Scale score at 2-week follow up” value ([3]; subject BE1) was 24, the “BES classification, pre-administration” value ([3]; subject BE1) was “moderate binge eating disorder (a score of between 21-27 indicates moderate binge eating disorder)” and the “Binge Eating Scale score, pre-administration” value ([3]; subject BE1) was 26. The “BES classification at two-week follow up” value ([3]; subject BE1, moderate binge eating disorder pre-administration) was “remained so”, the “% change in Binge Eating Scale” value ([3]; subject BE1) was −7.69% and the “Binge Eating Scale score at 2-week follow up” value ([3]; subject BE2) was 35. The “Binge Eating Scale score, pre-administration” value ([3]; subject BE2) was 32, the “% change in Binge Eating Scale” value ([3]; subject BE2) was “+9.38%” and the “Binge Eating Scale score at 2-week follow up” value ([3]; subject BE3) was 28. The “BES classification, pre-administration” value ([3]; subject BE3) was “severe binge eating disorder (a score above 27 indicates severe binge eating disorder)”, the “Binge Eating Scale score, pre-administration” value ([3]; subject BE3) was 42 and the “% change in Binge Eating Scale” value ([3]; subject BE3) was −33.33%. The “BES classification at two-week follow up” value ([3]; subject BE3, severe binge eating disorder pre-administration) was “one point away from the moderate classification”.
